Eight molecules from PubChem BioAssay AID2060341 (Molecular Pharmacology Branch, DTP, NCI, 2025) can be followed below.

Several values for one entry are separate records, joined by “and”; a condition that tells them apart may be missing. Equal entries are not always repeated.

For this assay, the system named is 327498-153-R-J2-PDC multicell spheroid viability. Put plainly: Anticancer human tumor 327498-153-R-J2-PDC patient-derived uterine carcinosarcoma cell line growth inhibition [IpAb]. The following applies: for viability, T/C: stronger effect = lower value. A digest of the protocol: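 Combinations with ipatasertib or abemaciclib were tested on tumour spheroids holding HUVEC (25%) and MSC (15%) alongside 60% malignant cells. Top concentration was at or near clinical Cmax (10 microM if undefined), descending in half-log steps.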

Setting [1] is: curve of first compound, second compound 0.1 µM.
[2] abbreviates: curve of first compound, second compound 0.316 µM.
Where [3] appears, read: curve of first compound, second compound 1 µM.
Setting [4] is: second compound 0.1 µM, first compound 0.00316 µM.
[5] abbreviates: second compound 0.1 µM, first compound 0.01 µM.
[6] abbreviates: second compound 0.1 µM, first compound 0.0316 µM.
[7] abbreviates: second compound 0.1 µM, first compound 0.1 µM.
Setting [8] is: second compound 0.316 µM, first compound 0.00316 µM.
[9] abbreviates: second compound 0.316 µM, first compound 0.01 µM.
Setting [10] is: second compound 0.316 µM, first compound 0.0316 µM.
Where [11] appears, read: second compound 0.316 µM, first compound 0.1 µM.
Setting [12] is: second compound 1 µM, first compound 0.00316 µM.
Where [13] appears, read: second compound 1 µM, first compound 0.01 µM.
The mark [14] stands for this setting: second compound 1 µM, first compound 0.0316 µM.
Setting [15] is: second compound 1 µM, first compound 0.1 µM.
Setting [16] is: curve of first compound, second compound 3.16 µM.
The mark [17] stands for this setting: curve of first compound, second compound 10 µM.
The mark [18] stands for this setting: second compound 0.1 µM, first compound 0.316 µM.
Setting [19] is: second compound 0.1 µM, first compound 1 µM.
Setting [20] is: second compound 0.316 µM, first compound 0.316 µM.
Where [21] appears, read: second compound 0.316 µM, first compound 1 µM.
Where [22] appears, read: second compound 1 µM, first compound 0.316 µM.
The mark [23] stands for this setting: second compound 1 µM, first compound 1 µM.
Setting [24] is: second compound 3.16 µM, first compound 0.0316 µM.
The mark [25] stands for this setting: second compound 3.16 µM, first compound 0.1 µM.
Where [26] appears, read: second compound 3.16 µM, first compound 0.316 µM.
The mark [27] stands for this setting: second compound 3.16 µM, first compound 1 µM.
Setting [28] is: second compound 10 µM, first compound 0.0316 µM.
The mark [29] stands for this setting: second compound 10 µM, first compound 0.1 µM.
[30] abbreviates: second compound 10 µM, first compound 0.316 µM.
Where [31] appears, read: second compound 10 µM, first compound 1 µM.
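Also: spheroids exposed to agents for 7 days.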
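For viability, T/C in this document: 100% = DMSO vehicle control viability.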

A word on the viability, T/C: it is the ratio of treated to control. Broadly, the IC50 is the concentration at which inhibition is half-maximal. In the case of `CC(=O)c1c(C)c2cnc(Nc3ccc(N4CCNCC4)cn3)nc2n(C2CCCC2)c1=O`, the viability, T/C was 106% and 97.8% (compound 0.000949 µM); 96.7% and 103% (compound 0.003 µM); 99.7% and 95.5% (compound 0.00949 µM); 79.2% and 89.8% (compound 0.03 µM); 70.2% and 70.4% (compound 0.0949 µM); 71% and 56.5% (compound 0.3 µM). For the same molecule, the IC50 (curve of compound) is > 300 nM.

With `Cn1nccc1Nc1nccc(-c2ccn(C(CO)c3ccc(Cl)c(F)c3)c(=O)c2)n1` (stereo not given), the viability, T/C (compound 0.0316 µM) is 99.2% and 102%; the viability, T/C (compound 0.1 µM) was 97.9% and 90.4%; the viability, T/C (compound 0.316 µM) is 98.9% and 92%; the viability, T/C (compound 1 µM) is 83.2% and 93.5%; the viability, T/C (compound 3.16 µM) is 64.7% and 54.9%; the viability, T/C (compound 10 µM) is 34.4% and 29.1%. In addition, the IC50 (curve of compound) was 5450 nM and 3930 nM.

With `CC(C)n1nc(-c2ccc3oc(N)nc3c2)c2c(N)ncnc21` + CCN1CCN(Cc2ccc(Nc3ncc(F)c(-c4cc(F)c5nc(C)n(C(C)C)c5c4)n3)nc2)CC1, the IC50 reads like this: (curve of first compound, second compound 0.01 µM) 7.33 nM; (curve of first compound, second compound 0.0316 µM) 4.58 nM; under setting [1], 2.01 nM; under setting [2], 1.03 nM; under setting [3], 1.17 nM. Moreover, the viability, T/C reads like this: (second compound 0.01 µM, first compound 0.000316 µM) 90.9%; (second compound 0.01 µM, first compound 0.001 µM) 77.3%; (second compound 0.01 µM, first compound 0.00316 µM) 68.1%; (second compound 0.01 µM, first compound 0.01 µM) 45.6%; (second compound 0.01 µM, first compound 0.0316 µM) 21.2%; (second compound 0.01 µM, first compound 0.1 µM) 16.1%. In addition, the viability, T/C was 68.7% (second compound 0.0316 µM, first compound 0.000316 µM); 73.6% (second compound 0.0316 µM, first compound 0.001 µM); 53.8% (second compound 0.0316 µM, first compound 0.00316 µM); 37.1% (second compound 0.0316 µM, first compound 0.01 µM); 19.8% (second compound 0.0316 µM, first compound 0.0316 µM); 14.8% (second compound 0.0316 µM, first compound 0.1 µM). The viability, T/C reads like this: (second compound 0.1 µM, first compound 0.000316 µM) 58.2%; (second compound 0.1 µM, first compound 0.001 µM) 50.3%; under setting [4], 49.8%; under setting [5], 31.4%; under setting [6], 20.7%; under setting [7], 14.6%. Besides, the viability, T/C was 59.2% (second compound 0.316 µM, first compound 0.000316 µM); 50.1% (second compound 0.316 µM, first compound 0.001 µM); 39.5% under setting [8]; 28.5% under setting [9]; 20.3% under setting [10]; 15.2% under setting [11]. Also, the viability, T/C (second compound 1 µM, first compound 0.000316 µM) was 56.9%; the viability, T/C (second compound 1 µM, first compound 0.001 µM) is 50.8%; the viability, T/C under setting [12] was 46.3%; the viability, T/C under setting [13] is 35.7%; the viability, T/C under setting [14] is 23.1%; the viability, T/C under setting [15] was 19.9%.

Consider `COc1c(OCCCN2CCOCC2)ccc2c3n(c(=NC(=O)c4cnc(N)nc4)nc12)CCN3` + CC(C)NCC(C(=O)N1CCN(c2ncnc3c2C(C)CC3O)CC1)c1ccc(Cl)cc1, for which the IC50 was 45.9 nM under setting [1]; 35.8 nM under setting [2]; 4.21 nM under setting [3]; < 3.16 nM under setting [16]; < 3.16 nM under setting [17]. Besides, the viability, T/C by setting is: under setting [4], 81.6%; under setting [5], 74.9%; under setting [6], 58%; under setting [7], 33.3%; under setting [18], 16.8%; under setting [19], 9.2%. In addition, the viability, T/C was 67.2% under setting [8]; 67.5% under setting [9]; 52.1% under setting [10]; 27.5% under setting [11]; 15.2% under setting [20]; 8.52% under setting [21]. The viability, T/C by setting is: under setting [12], 53.5%; under setting [13], 39.2%; under setting [14], 32.4%; under setting [15], 21.1%; under setting [22], 9.37%; under setting [23], 7.49%. In addition, the viability, T/C reads like this: (second compound 3.16 µM, first compound 0.00316 µM) 42.2%; (second compound 3.16 µM, first compound 0.01 µM) 33.3%; under setting [24], 23.6%; under setting [25], 15%; under setting [26], 8.38%; under setting [27], 5.77%. Further, the viability, T/C reads like this: (second compound 10 µM, first compound 0.00316 µM) 34.2%; (second compound 10 µM, first compound 0.01 µM) 25.9%; under setting [28], 22.4%; under setting [29], 11.9%; under setting [30], 7.65%; under setting [31], 4.58%.

With `C=CC(=O)N1CCN(c2nc(=O)n(-c3c(C)ccnc3C(C)C)c3nc(-c4c(O)cccc4F)c(F)cc23)C(C)C1` (stereo not given), the viability, T/C is 73.5% and 77.4% (compound 0.0316 µM); 69.2% and 69.6% (compound 0.1 µM); 58.3% and 67.6% (compound 0.316 µM); 65.6% and 63.7% (compound 1 µM); 67.2% and 65% (compound 3.16 µM); 55.8% and 59.9% (compound 10 µM). For the same molecule, where the note is “curve of compound”, the IC50 was > 10000 nM.

`CCCS(=O)(=O)Nc1ccc(F)c(C(=O)c2c[nH]c3ncc(-c4ccc(Cl)cc4)cc23)c1F` + CC(C)NCC(C(=O)N1CCN(c2ncnc3c2C(C)CC3O)CC1)c1ccc(Cl)cc1: the IC50 under setting [1] is > 10000 nM; the IC50 under setting [2] was > 10000 nM; the IC50 under setting [3] is > 10000 nM; the IC50 under setting [16] was 2360 nM; the half-maximal inhibitory concentration (IC50) under setting [17] was < 31.6 nM. In addition, the viability, T/C under setting [6] is 94.3%; the viability, T/C under setting [7] was 101%; the viability, T/C under setting [18] is 96.7%; the viability, T/C under setting [19] was 101%; the viability, T/C (second compound 0.1 µM, first compound 3.16 µM) is 101%; the viability, T/C (second compound 0.1 µM, first compound 10 µM) is 86.7%. Besides, the viability, T/C reads like this: under setting [10], 72.2%; under setting [11], 74%; under setting [20], 80.6%; under setting [21], 81.1%; (second compound 0.316 µM, first compound 3.16 µM) 85.3%; (second compound 0.316 µM, first compound 10 µM) 63%. For the same molecule, the viability, T/C was 57.5% under setting [14]; 58.2% under setting [15]; 62.9% under setting [22]; 76.3% under setting [23]; 74.1% (second compound 1 µM, first compound 3.16 µM); 49% (second compound 1 µM, first compound 10 µM). Also, the viability, T/C under setting [24] was 49.6%; the viability, T/C under setting [25] is 50.3%; the viability, T/C under setting [26] was 52%; the viability, T/C under setting [27] is 56%; the viability, T/C (second compound 3.16 µM, first compound 3.16 µM) was 54.4%; the viability, T/C (second compound 3.16 µM, first compound 10 µM) was 42.1%. Besides, the viability, T/C is 40.1% under setting [28]; 41.8% under setting [29]; 44.2% under setting [30]; 40.7% under setting [31]; 41.2% (second compound 10 µM, first compound 3.16 µM); 23.4% (second compound 10 µM, first compound 10 µM).

As for `COc1c(OCCCN2CCOCC2)ccc2c3n(c(=NC(=O)c4cnc(N)nc4)nc12)CCN3`, the viability, T/C is, setting by setting: (compound 0.00316 µM) 98.8% and 95%; (compound 0.01 µM) 87.7% and 86%; (compound 0.0316 µM) 70.7% and 76.3%; (compound 0.1 µM) 46.7% and 45.2%; (compound 0.316 µM) 25.3% and 23.2%; (compound 1 µM) 9.52% and 11.8%. The IC50 (curve of compound) is 86.5 nM and 86.4 nM.

Regarding `CC(C)(C)c1cnc(CSc2cnc(NC(=O)C3CCNCC3)s2)o1`, the viability, T/C runs as follows: (compound 0.00949 µM) 106% and 96.9%; (compound 0.03 µM) 108% and 105%; (compound 0.0949 µM) 95.8% and 93.2%; (compound 0.3 µM) 4.76% and 7%; (compound 0.949 µM) 0.89% and 1.1%; (compound 3 µM) 0.6% and 0.58%. Further, under “curve of compound”, the IC50 amounted to 169 nM.
